Like-named read-outs stand apart in the source and are kept apart here.

For one series, the system named is K562 cells. Description: Cell viability, Cell Titer Glo 2.0 assay, K562. Conditions: 72 hours. On the technique in general: ATP-based viability assays read luminescence as a measure of living cells.
The subject of a further series is HiBiT-tagged HTT protein. The series is described as follows: HiBiT protein abundance assay, HTT (K562 HiBiT knock-in). To be noted: HiBiT knock-in cells, 24 hours. In kind it is cell-based, human. The protocol:
(§1) Compounds described herein were used to screen for effects on quantitative protein abundance using a HiBit assay system (Promega). Quantitative protein abundance was determined by measuring the protein levels of HiBit-tagged protein targets expressed in cell culture via luminescence using the Nano-Glo HiBiT Lytic Detection System, which uses a split complementation assay format to reconstitute NanoBiT enzyme to generate a luminescent signal. A protein abundance assay was developed such that endogenous protein targets could be modified with the HiBiT peptide tag and their abundance could be assessed after compound treatment. Briefly, K562 cell lines containing a HiBiT-modification were treated with various compounds described herein (e.g., compounds of Formulas (I), or (II)). After treatment for 24 hours, the protein abundance of a specific target was determined by measuring luminescence.
(§2) • Promega Nano-Glo HiBiT Lytic Detection System (cat #N3030) • Corning 384-well TC-treated microplates (cat #3570)
(§3) Cells were maintained in IMDM with 10% FBS. Before the assay, cells were diluted with […] growth media (IMDM+1% FBS media) and were seeded in a 384-well plate at a density of 10000 cells/well (for each cell line listed in Table 6). Each compound was prepared as a 10-point 3-old serial dilution in DMSO with the top dose at a final concentration of 10 μM in the well. Unmodified K562 cells were added at the previously specified density with DMSO to serve as an assay baseline and positive control (PC) and DMSO only with the respective modified cell lines was added to the negative control (NC) columns. Final DMSO concentration was kept at or below 0.25%. Treated cell plates were placed in an incubator at 37° C. with 5% CO2 for 24 hours. After 24 hours, 25 μL of Complete HiBit Lytic reagent was added to each well at room temperature (e.g. one plate requiring 10 ml Lytic Buffer, 100 μL LgBiT Protein, 200 μL Lytic Substrate), shaken for 5 minutes at 600 RPM, then left to sit for 10 minutes for signal to stabilize before reading on a Spark Cyto plate reader (Tecan) with a 500 ms measurement time.
(§4) To determine compound effects on protein abundance of each target in Table 6, the percent response for each respective cell line was calculated at each compound concentration as follows:
(§5) For the normalized response at each concentration, a four-parameter logistical regression was fit to the data and the response was interpolated at the 50% value to determine a concentration for protein abundance at 50% (IC50) the untreated control.

For a further series, the system named is HiBiT-tagged MYB protein. Description: HiBiT protein abundance assay, MYB (K562 HiBiT knock-in). It is filed as cell-based, human. Conditions: HiBiT knock-in cells, 24 hours. As for the experimental part:
as §1, §2, §3, §4, §5
For orientation: The HiBiT peptide binds its large partner to form an active luciferase.

The test system of another series is Target C. The series is described as follows: HiBiT protein abundance assay, Target C (K562 HiBiT knock-in). Conditions: HiBiT knock-in cells, 24 hours. In kind it is cell-based, human. The protocol: as §3, §4, §5
For the next series, the system named is MYB mRNA. Description: Splicing RT-qPCR assay, MYB canonical (CJ) and alternative (AJ) junction mRNA. In kind it is cell-based, human. To be noted: Homo sapiens; for IC50: canonical junction mRNA; for AC50: alternative junction mRNA, read-out: MYB AJ (AC50, increase in AJ mRNA). An outline of the steps: (§6)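 Read-out: one-step RT-qPCR on crude lysates measuring exon-exon junction isoforms, CJ for the canonical transcript and AJ for compound-induced exon inclusion. Normalization used PPIA for adherent A673 and GAPDH or GUSB for K562. Cells received 11 doses, 3-fold apart, top 10 uM, for 24 h.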
A general note: Real-time PCR tracks product formation cycle by cycle.

The test system of another series is Target C mRNA. Description: Splicing RT-qPCR panel, Target C canonical junction (CJ) mRNA. In kind it is cell-based, human. Conditions: Homo sapiens, read-out: Target C CJ (decrease in CJ mRNA levels, IC50). The method in brief:
(§7)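 A673 cells (DMEM, 10% FBS) or K562 cells (IMDM, 10% FBS) treated 24 h at 37 °C with an 11-point 3-fold dilution, top 10 uM, DMSO ≤0.25%. Canonical-junction mRNA quantified in lysates by RT-qPCR, normalised to GAPDH, GUSB or PPIA and to DMSO (2^−ΔΔCt), then converted to % response.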

The subject of another series is HTT mRNA. The series is described as follows: Splicing RT-qPCR assay, HTT canonical (CJ) and alternative (AJ) junction mRNA. To be noted: Homo sapiens; for IC50: canonical junction mRNA; for AC50: alternative junction mRNA, read-out: HTT AJ (AC50, increase in AJ mRNA). In kind it is cell-based, human. The method in brief: as §6
A further series deals with SMN2 mRNA. Description: Splicing RT-qPCR panel, SMN2 canonical junction (CJ) mRNA. Conditions: Homo sapiens, read-out: SMN2 CJ (decrease in CJ mRNA levels, IC50). It is filed as cell-based, human. The method in brief: as §7
The mark [1] stands for this setting: qPCR panel, read-out: MYB CJ (decrease in CJ mRNA levels, IC50).
Setting [2] is: RT-qPCR, A673 or K562 cells, 24 hours treatment.
[3] abbreviates: RT-qPCR, A673 or K562 cells, 24 hours treatment, read-out: MYB CJ (IC50, decrease in CJ mRNA).
The mark [4] stands for this setting: 24 h, RT-qPCR, A673 or K562 cells, 24 hours treatment, read-out: HTT CJ (IC50, decrease in CJ mRNA).
Setting [5] is: qPCR panel, read-out: HTT CJ (decrease in CJ mRNA levels, IC50).

A word on the IC50: it is the midpoint of a concentration-inhibition curve. As to `CN[C@H]1CCN(c2cnc3nc(-c4cc5cn(C)nc5c(C)c4O)ccc3c2)C1` [Compound 111], in the series with K562 cells, the “Effect on Cell Viability, K562” value was “A (<100 nM)”. Moreover, the IC50 with HiBiT-tagged HTT protein, in the series on HiBiT-tagged MYB protein and in the series on Target C was < 100 nM throughout.

Regarding `Cn1cc2cc(-c3cnc4cc(C5CCNCC5)ccc4n3)c(O)c(F)c2n1` [Compound 167, 7-fluoro-2-methyl-5-[6-(piperidin-4-yl)quinoxalin-2-yl]indazol-6-ol], in the series with K562 cells, the “Effect on Cell Viability, K562” value was “A (<100 nM)”. Besides, the IC50 with HiBiT-tagged HTT protein, with HiBiT-tagged MYB protein and in the series on Target C was < 100 nM throughout.

As usually defined, the AC50 is the concentration at which the activity in the assay is half-maximal. Regarding `COc1nc(-c2cc(Cl)c3cc(N4C[C@H](C)N[C@@H](C)C4)cnc3n2)cn2cc(C)nc12` [Compound 403, 4-chloro-6-[(3S,5S)-3,5-dimethylpiperazin-1-yl]-2-{8-methoxy-2-methylimidazo[1,2-a]pyrazin-6-yl}-1,8-naphthyridine], the “Effect on Cell Viability, K562” value in the series with K562 cells is reported as “C (1000-9999 nM)”. Moreover, the IC50 in the series with MYB mRNA (setting [1]) is 1000 to 10000 nM; in the series on MYB mRNA (setting [3]), 1000 to 10000 nM; with Target C mRNA it was > 10000 nM; in the series with HTT mRNA (setting [4]), > 10000 nM; with HTT mRNA (setting [5]) it was > 10000 nM; in the series with SMN2 mRNA, 100 to 1000 nM. Also, the AC50 in the series with MYB mRNA (setting [2]) is 100 to 1000 nM; in the series on HTT mRNA (setting [2]), > 10000 nM.

For `C[C@H]1CN(c2cnc3nc(-c4cc5cn(C)nc5cc4O)cc(Cl)c3c2)C[C@H](C)N1C` [Compound 404, 5-{4-chloro-6-[(3S,5S)-3,4,5-trimethylpiperazin-1-yl]-1,8-naphthyridin-2-yl}-2-methylindazol-6-ol], the “Effect on Cell Viability, K562” value in the series on K562 cells is “B (100-1000 nM)”. In addition, the IC50 in the series on MYB mRNA (setting [1]) was 100 to 1000 nM; with MYB mRNA (setting [3]) it was 100 to 1000 nM; with Target C mRNA, 1000 to 10000 nM; with HTT mRNA (setting [4]), 1000 to 10000 nM; with HTT mRNA (setting [5]) it was 1000 to 10000 nM; in the series on SMN2 mRNA, < 100 nM. Moreover, the AC50 is 100 to 1000 nM with MYB mRNA (setting [2]) and 1000 to 10000 nM in the series with HTT mRNA (setting [2]).
